# Experimental data as given in PubChem BioAssay AID220 (DTP/NCI, 2004).
# Where “and” joins values, the source holds several entries; their conditions need not be identical. Equal entries are not always repeated. Results filed as inconclusive are left out.
# Test system: CD8F1 mice, subcutaneous mammary adenocarcinoma, T/C%
# Test: NCI In Vivo Anticancer Drug Screen. Data for tumor model Mammary Adenocarcinoma CD8F1 (subcutaneous) in CD8F1
# Conditions: higher = larger tumour
# Procedure: The antitumor activity of compounds was measured in mice bearing transplantable tumors. Survival or tumor size were measured and the results are expressed as the measurement made in the treated group (T) divided by the measurement made in the vehicle treated control group (C). The tumor model used in this assay is Mammary Adenocarcinoma CD8F1 (subcutaneous) in CD8F1
# [1] = endpoint: median tumor weight change, dose: 31.25 mg/kg/injection, schedule: Q01DX001 (ip), vehicle: saline with Tween-80
# [2] = endpoint: median tumor weight (est.), dose: 12.5 mg/kg/injection, schedule: Q07DX005 (ip), vehicle: saline
# [3] = endpoint: median tumor weight (est.), dose: 12.5 mg/kg/injection, schedule: Q07DX005 (ip), vehicle: suspension in saline
# [4] = endpoint: median tumor weight (est.), dose: 25.0 mg/kg/injection, schedule: Q07DX005 (ip), vehicle: saline
# [5] = endpoint: median tumor weight (est.), dose: 25.0 mg/kg/injection, schedule: Q07DX005 (ip), vehicle: suspension in saline
# [6] = endpoint: median tumor weight (est.), dose: 50.0 mg/kg/injection, schedule: Q07DX005 (ip), vehicle: saline
# [7] = endpoint: median tumor weight (est.), dose: 50.0 mg/kg/injection, schedule: Q07DX005 (ip), vehicle: suspension in saline
smiles,measurement,setting,value
NC(=S)Nc1cccc2ccccc12,T/C,[1],58 % of control
same,T/C,"endpoint: median tumor weight change, dose: 62.5 mg/kg/injection, schedule: Q01DX001 (ip), vehicle: saline with Tween-80",80 % of control
CN(N=O)C(N)=O,T/C,"endpoint: median tumor weight (est.), dose: 3.12 mg/kg/injection, schedule: Q07DX005 (ip), vehicle: suspension in saline",156 % of control
same,T/C,[2],103 % of control
same,T/C,[3],104 % of control
same,T/C,[4],81 % of control
same,T/C,[5],100 % of control
same,T/C,[6],39 % of control
same,T/C,[7],31 % of control
same,T/C,"endpoint: median tumor weight change, dose: 15.62 mg/kg/injection, schedule: Q01DX001 (ip), vehicle: Klucel (hydroxypropylcellulose) (HPC)",66 % of control
same,T/C,"endpoint: median tumor weight change, dose: 16.0 mg/kg/injection, schedule: Q01DX001 (ip), vehicle: saline",54 % of control
same,T/C,"endpoint: median tumor weight change, dose: 31.0 mg/kg/injection, schedule: Q01DX001 (ip), vehicle: saline",29 % of control
same,T/C,"endpoint: median tumor weight change, dose: 31.25 mg/kg/injection, schedule: Q01DX001 (ip), vehicle: Klucel (hydroxypropylcellulose) (HPC)",67 % of control
same,T/C,"endpoint: median tumor weight change, dose: 31.25 mg/kg/injection, schedule: Q01DX001 (ip), vehicle: suspension in saline",72 % of control
same,T/C,"endpoint: median tumor weight change, dose: 62.0 mg/kg/injection, schedule: Q01DX001 (ip), vehicle: saline",38 % of control
same,T/C,"endpoint: median tumor weight change, dose: 62.5 mg/kg/injection, schedule: Q01DX001 (ip), vehicle: Klucel (hydroxypropylcellulose) (HPC)",14 % of control
same,T/C,"endpoint: median tumor weight change, dose: 62.5 mg/kg/injection, schedule: Q01DX001 (ip), vehicle: suspension in saline",57 % of control
same,T/C,"endpoint: median tumor weight change, dose: 125.0 mg/kg/injection, schedule: Q01DX001 (ip), vehicle: saline",-59 % of control
same,T/C,"endpoint: median tumor weight change, dose: 125.0 mg/kg/injection, schedule: Q01DX001 (ip), vehicle: suspension in saline",-2 % of control
Cc1c(N)nc(C(CC(N)=O)NCC(N)C(N)=O)nc1C(=O)NC(C(=O)NC(C)C(O)C(C)C(=O)NC(C(=O)NCCc1nc(-c2nc(C(=O)NCCCNCCCc3ccccn3)cs2)cs1)C(C)O)C(OC1OC(CO)C(O)C(O)C1OC1OC(CO)C(O)C(OC(N)=O)C1O)c1cnc[nH]1 (stereo unspecified),T/C,"endpoint: median tumor weight (est.), dose: 0.37 mg/kg/injection, schedule: Q07DX005 (ip), vehicle: water",45 % of control
same,T/C,"endpoint: median tumor weight (est.), dose: 0.75 mg/kg/injection, schedule: Q07DX005 (ip), vehicle: water",76 % of control
same,T/C,"endpoint: median tumor weight (est.), dose: 1.5 mg/kg/injection, schedule: Q07DX005 (ip), vehicle: water",104 % of control
same,T/C,"endpoint: median tumor weight (est.), dose: 3.2 mg/kg/injection, schedule: Q07DX005 (ip), vehicle: water",101 % of control
same,T/C,"endpoint: median tumor weight (est.), dose: 3.5 mg/kg/injection, schedule: Q07DX005 (ip), vehicle: water",166 % of control
same,T/C,"endpoint: median tumor weight (est.), dose: 6.0 mg/kg/injection, schedule: Q07DX005 (ip), vehicle: water",100 % of control
same,T/C,"endpoint: median tumor weight (est.), dose: 6.4 mg/kg/injection, schedule: Q07DX005 (ip), vehicle: water",52 % of control
same,T/C,"endpoint: median tumor weight (est.), dose: 7.0 mg/kg/injection, schedule: Q07DX005 (ip), vehicle: water",104 % of control
same,T/C,"endpoint: median tumor weight (est.), dose: 12.8 mg/kg/injection, schedule: Q07DX005 (ip), vehicle: water",12 % of control
same,T/C,"endpoint: median tumor weight (est.), dose: 14.0 mg/kg/injection, schedule: Q07DX005 (ip), vehicle: water",53 % of control
same,T/C,"endpoint: median tumor weight (est.), dose: 28.0 mg/kg/injection, schedule: Q07DX005 (ip), vehicle: water",3 % of control
Cc1oc2c(C)c3oc(=O)cc(C)c3cc2c1CCl,T/C,"endpoint: median tumor weight change, dose: 15.62 mg/kg/injection, schedule: Q01DX001 (ip), vehicle: saline with Tween-80",60 % of control
same,T/C,[1],68 % of control
same,T/C,"endpoint: median tumor weight change, dose: 1000.0 mg/kg/injection, schedule: Q01DX001 (ip), vehicle: saline with Tween-80",42 % of control
c1cc(-c2cc3ccc(C4=NCCN4)cc3[nH]2)ccc1C1=NCCN1,T/C,"endpoint: median tumor weight (est.), dose: 6.25 mg/kg/injection, schedule: Q07DX005 (ip), vehicle: suspension in saline",103 % of control
same,T/C,[3],60 % of control
same,T/C,[4],45 % of control
same,T/C,[5],164 % of control
same,T/C,"endpoint: median tumor weight change, dose: 62.0 mg/kg/injection, schedule: Q01DX001 (ip), vehicle: suspension in saline",99 % of control
Nc1ccn([C@@H](C=O)O[C@@H](C=O)CO)c(=O)n1,T/C,[5],122 % of control
same,T/C,[7],188 % of control
same,T/C,"endpoint: median tumor weight (est.), dose: 100.0 mg/kg/injection, schedule: Q07DX005 (ip), vehicle: suspension in saline",151 % of control
same,T/C,"endpoint: median tumor weight (est.), dose: 200.0 mg/kg/injection, schedule: Q07DX005 (ip), vehicle: suspension in saline",105 % of control
CC1(C)CC(=O)C(CSC(=O)c2ccccc2)C(=O)C1,T/C,"endpoint: median tumor weight (est.), dose: 6.25 mg/kg/injection, schedule: Q07DX005 (ip), vehicle: Klucel (hydroxypropylcellulose) (HPC)",182 % of control
same,T/C,"endpoint: median tumor weight (est.), dose: 6.25 mg/kg/injection, schedule: Q07DX005 (ip), vehicle: saline",55 % of control
same,T/C,[2],102 % of control
same,T/C,[4],158 % of control
same,T/C,"endpoint: median tumor weight (est.), dose: 50.0 mg/kg/injection, schedule: Q07DX005 (ip), vehicle: Klucel (hydroxypropylcellulose) (HPC)",39 % of control
same,T/C,[6],73 % of control
same,T/C,"endpoint: median tumor weight (est.), dose: 100.0 mg/kg/injection, schedule: Q07DX005 (ip), vehicle: Klucel (hydroxypropylcellulose) (HPC)",187 % of control
same,T/C,"endpoint: median tumor weight (est.), dose: 100.0 mg/kg/injection, schedule: Q07DX005 (ip), vehicle: saline",64 % of control
same,T/C,"endpoint: median tumor weight (est.), dose: 200.0 mg/kg/injection, schedule: Q07DX005 (ip), vehicle: Klucel (hydroxypropylcellulose) (HPC)",57 % of control
CCc1c(CC(=O)O)c2cc(C)ccc2n1Cc1ccc(Cl)cc1,T/C,"endpoint: median tumor weight change, dose: 125.0 mg/kg/injection, schedule: Q01DX001 (ip), vehicle: Klucel (hydroxypropylcellulose) (HPC)",89 % of control
same,T/C,"endpoint: median tumor weight change, dose: 250.0 mg/kg/injection, schedule: Q01DX001 (ip), vehicle: Klucel (hydroxypropylcellulose) (HPC)",101 % of control
Cc1ccccc1-[n+]1noc(N)n1,T/C,"endpoint: median tumor weight change, dose: 31.25 mg/kg/injection, schedule: Q01DX001 (ip), vehicle: water",72 % of control
same,T/C,"endpoint: median tumor weight change, dose: 62.5 mg/kg/injection, schedule: Q01DX001 (ip), vehicle: water",87 % of control
same,T/C,"endpoint: median tumor weight change, dose: 125.0 mg/kg/injection, schedule: Q01DX001 (ip), vehicle: water",29 % of control
CC(=O)O[C@@H]1CO[C@H]2O[C@H]3[C@@H](C(C=O)=C[C@H](O)[C@@H]4C5=C(C(C)C)CC[C@]5(C)CC[C@@]34C)[C@@]2(O)C1=O,T/C,"endpoint: median tumor weight change, dose: 3.75 mg/kg/injection, schedule: Q01DX001 (ip), vehicle: Klucel (hydroxypropylcellulose) (HPC)",36 % of control
same,T/C,"endpoint: median tumor weight change, dose: 15.0 mg/kg/injection, schedule: Q01DX001 (ip), vehicle: Klucel (hydroxypropylcellulose) (HPC)",63 % of control and 74 % of control
Nc1nc(=S)c2[nH]cnc2[nH]1,T/C,"endpoint: median tumor weight (est.), dose: 1.0 mg/kg/injection, schedule: Q07DX005 (ip), vehicle: Klucel (hydroxypropylcellulose) (HPC)",71 % of control
same,T/C,"endpoint: median tumor weight (est.), dose: 2.0 mg/kg/injection, schedule: Q07DX005 (ip), vehicle: Klucel (hydroxypropylcellulose) (HPC)",74 % of control
same,T/C,"endpoint: median tumor weight (est.), dose: 4.0 mg/kg/injection, schedule: Q07DX005 (ip), vehicle: Klucel (hydroxypropylcellulose) (HPC)",42 % of control
same,T/C,"endpoint: median tumor weight (est.), dose: 8.0 mg/kg/injection, schedule: Q07DX005 (ip), vehicle: Klucel (hydroxypropylcellulose) (HPC)",20 % of control
same,T/C,"endpoint: median tumor weight (est.), dose: 8.0 mg/kg/injection, schedule: Q07DX005 (ip), vehicle: other",29 % of control
same,T/C,"endpoint: median tumor weight (est.), dose: 12.0 mg/kg/injection, schedule: Q07DX005 (ip), vehicle: other",19 % of control
same,T/C,"endpoint: median tumor weight (est.), dose: 16.0 mg/kg/injection, schedule: Q07DX005 (ip), vehicle: Klucel (hydroxypropylcellulose) (HPC)",7 % of control
same,T/C,"endpoint: median tumor weight (est.), dose: 16.0 mg/kg/injection, schedule: Q07DX005 (ip), vehicle: other",16 % of control
